These results are taken from PubChem BioAssay (NCI).

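A five-concentration, 48-hour dose response in 96-well plates underlies each endpoint, interpolated linearly between surrounding concentrations. Definition used: TGI = concentration required for complete inhibition of growth.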

The first test relates to HL-60(TB) leukemia. As to the kind of experiment: growth of human tumour cells (NCI), 48 h.
In turn, `CCOC(=O)CC(=O)ON(C)C(C)=O` showed a TGI greater than 100 µM.
With `CC(C)OP(=O)(OC(C)C)C(=NCCN=C(NNc1ccc([N+](=O)[O-])cc1)P(=O)(OC(C)C)OC(C)C)NNc1ccc([N+](=O)[O-])cc1`, the TGI is greater than 100 µM.
In the case of `Cn1c2ccccc2c2cc(-c3ccccc3)c3c(c21)C(=O)c1ccccc1C3=O`, the TGI worked out at 35.9 µM.
In turn, `CN(C)c1ccc(/C=C(\NC(=O)c2ccccc2)c2nc3ncncc3[nH]2)cc1` showed a TGI greater than 100 µM.

A further test relates to HOP-62 NSCLC. Put plainly: growth of human tumour cells (NCI), 48 h.
Turning to `CCOC(=O)CC(=O)ON(C)C(C)=O`, the TGI is greater than 100 µM.
In turn, `CC(C)OP(=O)(OC(C)C)C(=NCCN=C(NNc1ccc([N+](=O)[O-])cc1)P(=O)(OC(C)C)OC(C)C)NNc1ccc([N+](=O)[O-])cc1` yielded a TGI greater than 100 µM.
Consider `Cn1c2ccccc2c2cc(-c3ccccc3)c3c(c21)C(=O)c1ccccc1C3=O`, for which the TGI was greater than 100 µM.

The next test deals with HOP-92 NSCLC. Put plainly: growth of human tumour cells (NCI), 48 h.
In turn, `CC(C)OP(=O)(OC(C)C)C(=NCCN=C(NNc1ccc([N+](=O)[O-])cc1)P(=O)(OC(C)C)OC(C)C)NNc1ccc([N+](=O)[O-])cc1` yielded a TGI of 8.82 µM.
Compound `Cn1c2ccccc2c2cc(-c3ccccc3)c3c(c21)C(=O)c1ccccc1C3=O` displayed a TGI of 26.3 µM.
The compound `CN(C)c1ccc(/C=C(\NC(=O)c2ccccc2)c2nc3ncncc3[nH]2)cc1` showed a TGI greater than 100 µM.

A further test has as its system HT29 colon. As to the kind of experiment: growth of human tumour cells (NCI), 48 h.
Compound `CCOC(=O)CC(=O)ON(C)C(C)=O` returned a TGI greater than 100 µM.
Compound `Cn1c2ccccc2c2cc(-c3ccccc3)c3c(c21)C(=O)c1ccccc1C3=O` registered a TGI greater than 100 µM.
The compound `CN(C)c1ccc(/C=C(\NC(=O)c2ccccc2)c2nc3ncncc3[nH]2)cc1` had a TGI greater than 100 µM.

The next test relates to IGROV1 ovarian. Put plainly: growth of human tumour cells (NCI), 48 h.
Turning to `CCOC(=O)CC(=O)ON(C)C(C)=O`, the TGI is greater than 100 µM.
In turn, `CC(C)OP(=O)(OC(C)C)C(=NCCN=C(NNc1ccc([N+](=O)[O-])cc1)P(=O)(OC(C)C)OC(C)C)NNc1ccc([N+](=O)[O-])cc1` yielded a TGI of 16.7 µM.
In turn, `Cn1c2ccccc2c2cc(-c3ccccc3)c3c(c21)C(=O)c1ccccc1C3=O` gave a TGI of 58.5 µM.
For `CN(C)c1ccc(/C=C(\NC(=O)c2ccccc2)c2nc3ncncc3[nH]2)cc1`, the TGI is greater than 100 µM.

Another test relates to K-562 leukemia. As to the kind of experiment: growth of human tumour cells (NCI), 48 h.
As to `CCOC(=O)CC(=O)ON(C)C(C)=O`, the TGI is greater than 100 µM.
`CC(C)OP(=O)(OC(C)C)C(=NCCN=C(NNc1ccc([N+](=O)[O-])cc1)P(=O)(OC(C)C)OC(C)C)NNc1ccc([N+](=O)[O-])cc1` displayed a TGI greater than 100 µM.
The same measure, in the same setting: the result for `Cn1c2ccccc2c2cc(-c3ccccc3)c3c(c21)C(=O)c1ccccc1C3=O` reads 73.1 µM.
`CN(C)c1ccc(/C=C(\NC(=O)c2ccccc2)c2nc3ncncc3[nH]2)cc1` had a TGI greater than 100 µM.

The test system of the next test is KM12 colon. As to the kind of experiment: growth of human tumour cells (NCI), 48 h.
Compound `CCOC(=O)CC(=O)ON(C)C(C)=O` displayed a TGI greater than 100 µM.
`CC(C)OP(=O)(OC(C)C)C(=NCCN=C(NNc1ccc([N+](=O)[O-])cc1)P(=O)(OC(C)C)OC(C)C)NNc1ccc([N+](=O)[O-])cc1` returned a TGI greater than 100 µM.
For `Cn1c2ccccc2c2cc(-c3ccccc3)c3c(c21)C(=O)c1ccccc1C3=O`, the TGI was 75.8 µM.
As to `CN(C)c1ccc(/C=C(\NC(=O)c2ccccc2)c2nc3ncncc3[nH]2)cc1`, the TGI was greater than 100 µM.

Another test has as its system KM20L2 colon. Put plainly: growth of human tumour cells (NCI), 48 h.
`CCOC(=O)CC(=O)ON(C)C(C)=O` yielded a TGI greater than 100 µM.
`CC(C)OP(=O)(OC(C)C)C(=NCCN=C(NNc1ccc([N+](=O)[O-])cc1)P(=O)(OC(C)C)OC(C)C)NNc1ccc([N+](=O)[O-])cc1` returned a TGI greater than 100 µM.
In turn, `CN(C)c1ccc(/C=C(\NC(=O)c2ccccc2)c2nc3ncncc3[nH]2)cc1` came in with a TGI greater than 100 µM.

In another test the test system is LOX IMVI melanoma. As to the kind of experiment: growth of human tumour cells (NCI), 48 h.
As for `CCOC(=O)CC(=O)ON(C)C(C)=O`, the TGI is greater than 100 µM.
Compound `CC(C)OP(=O)(OC(C)C)C(=NCCN=C(NNc1ccc([N+](=O)[O-])cc1)P(=O)(OC(C)C)OC(C)C)NNc1ccc([N+](=O)[O-])cc1` returned a TGI greater than 100 µM.

The test system of a further test is LXFL 529 NSCLC. As to the kind of experiment: growth of human tumour cells (NCI), 48 h.
For the compound `CCOC(=O)CC(=O)ON(C)C(C)=O`, the TGI was greater than 100 µM.
Same read-out and setting: the result for `CC(C)OP(=O)(OC(C)C)C(=NCCN=C(NNc1ccc([N+](=O)[O-])cc1)P(=O)(OC(C)C)OC(C)C)NNc1ccc([N+](=O)[O-])cc1` reads greater than 100 µM; that for `Cn1c2ccccc2c2cc(-c3ccccc3)c3c(c21)C(=O)c1ccccc1C3=O`, 29.3 µM.
`CN(C)c1ccc(/C=C(\NC(=O)c2ccccc2)c2nc3ncncc3[nH]2)cc1` registered a TGI greater than 100 µM.

Another test deals with M14 melanoma. As to the kind of experiment: growth of human tumour cells (NCI), 48 h.
The compound `CCOC(=O)CC(=O)ON(C)C(C)=O` returned a TGI greater than 100 µM.
As for `CC(C)OP(=O)(OC(C)C)C(=NCCN=C(NNc1ccc([N+](=O)[O-])cc1)P(=O)(OC(C)C)OC(C)C)NNc1ccc([N+](=O)[O-])cc1`, the TGI is greater than 100 µM.
On to `Cn1c2ccccc2c2cc(-c3ccccc3)c3c(c21)C(=O)c1ccccc1C3=O`, for which the TGI was determined as 33.4 µM.
On to `CN(C)c1ccc(/C=C(\NC(=O)c2ccccc2)c2nc3ncncc3[nH]2)cc1`, for which the TGI was greater than 100 µM.

The subject of the next test is M19-MEL melanoma. As to the kind of experiment: growth of human tumour cells (NCI), 48 h.
On to `CCOC(=O)CC(=O)ON(C)C(C)=O`, for which the TGI is greater than 100 µM.
`CC(C)OP(=O)(OC(C)C)C(=NCCN=C(NNc1ccc([N+](=O)[O-])cc1)P(=O)(OC(C)C)OC(C)C)NNc1ccc([N+](=O)[O-])cc1` showed a TGI greater than 100 µM.
Same read-out and setting: the result for `Cn1c2ccccc2c2cc(-c3ccccc3)c3c(c21)C(=O)c1ccccc1C3=O` reads 6.47 µM.
Same read-out and setting: the figure for `CN(C)c1ccc(/C=C(\NC(=O)c2ccccc2)c2nc3ncncc3[nH]2)cc1` is greater than 100 µM.

The subject of another test is MALME-3M melanoma. As to the kind of experiment: growth of human tumour cells (NCI), 48 h.
Take `CCOC(=O)CC(=O)ON(C)C(C)=O`: the TGI is greater than 100 µM.
The compound `CC(C)OP(=O)(OC(C)C)C(=NCCN=C(NNc1ccc([N+](=O)[O-])cc1)P(=O)(OC(C)C)OC(C)C)NNc1ccc([N+](=O)[O-])cc1` came in with a TGI greater than 100 µM.
In the case of `Cn1c2ccccc2c2cc(-c3ccccc3)c3c(c21)C(=O)c1ccccc1C3=O`, the TGI was found to be 49.6 µM.
In the case of `CN(C)c1ccc(/C=C(\NC(=O)c2ccccc2)c2nc3ncncc3[nH]2)cc1`, the TGI is greater than 100 µM.

A further test relates to MOLT-4 leukemia. Put plainly: growth of human tumour cells (NCI), 48 h.
The compound `CCOC(=O)CC(=O)ON(C)C(C)=O` came in with a TGI greater than 100 µM.
`CC(C)OP(=O)(OC(C)C)C(=NCCN=C(NNc1ccc([N+](=O)[O-])cc1)P(=O)(OC(C)C)OC(C)C)NNc1ccc([N+](=O)[O-])cc1` had a TGI greater than 100 µM.
In the case of `Cn1c2ccccc2c2cc(-c3ccccc3)c3c(c21)C(=O)c1ccccc1C3=O`, the TGI was 92.7 µM.
As for `CN(C)c1ccc(/C=C(\NC(=O)c2ccccc2)c2nc3ncncc3[nH]2)cc1`, the TGI is greater than 100 µM.
